Source: ChEMBL document CHEMBL1765070, “Structure-based design of potent and selective 3-phosphoinositide-dependent kinase-1 (PDK1) inhibitors” (J Med Chem, 2011)

These compounds were tested against T1, 3-phosphoinositide-dependent protein kinase 1 (Homo sapiens, UniProt O15530) (assay: Inhibition of PDK1). Settings: not given.
T1 sequence (O15530 whole entry): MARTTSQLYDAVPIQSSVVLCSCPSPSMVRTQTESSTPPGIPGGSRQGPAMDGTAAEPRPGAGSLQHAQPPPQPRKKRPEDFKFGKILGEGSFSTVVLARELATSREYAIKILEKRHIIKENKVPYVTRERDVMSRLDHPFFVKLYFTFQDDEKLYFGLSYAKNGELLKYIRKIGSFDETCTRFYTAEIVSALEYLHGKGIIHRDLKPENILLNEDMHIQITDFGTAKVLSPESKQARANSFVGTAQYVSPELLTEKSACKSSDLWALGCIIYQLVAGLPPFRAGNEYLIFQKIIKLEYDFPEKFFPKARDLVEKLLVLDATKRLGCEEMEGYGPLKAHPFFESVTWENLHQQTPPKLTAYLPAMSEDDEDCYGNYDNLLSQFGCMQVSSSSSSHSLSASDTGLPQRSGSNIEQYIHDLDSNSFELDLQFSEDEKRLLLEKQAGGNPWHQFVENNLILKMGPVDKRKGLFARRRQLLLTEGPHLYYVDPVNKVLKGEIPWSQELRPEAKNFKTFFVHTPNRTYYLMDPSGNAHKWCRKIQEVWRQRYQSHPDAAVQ

IC50	Structure (SMILES)
0.02 µM	Nc1nc(Nc2ccccc2)cc(-c2ccc3c(N)n[nH]c3c2)n1
0.0316 µM	Nc1nc(-c2ccc3c(N)n[nH]c3c2)cc(N2CCC[C@H](C(=O)Nc3ccccc3)C2)n1

Continued, compound first:

Structure (SMILES)	IC50
CC(C)[C@@H]1COCCN1c1cc(-c2ccc3c(N)n[nH]c3c2)nc(N)n1	0.2 µM
CC(C)(C)OC(=O)N[C@@H]1CCCN(c2cc(-c3ccc4c(N)n[nH]c4c3)nc(N)n2)C1	0.0251 µM
Nc1nc(-c2ccc3c(N)n[nH]c3c2)cc(N2CCCC2)n1	0.251 µM
CN(C)c1nccc(-c2ccc3c(N)n[nH]c3c2)n1	20 µM

The compounds below were run against Aurora kinase B (Homo sapiens, UniProt Q96GD4) (assay: Inhibition of aurora B). Settings: not given.
Chain of Aurora kinase B (Q96GD4 whole entry): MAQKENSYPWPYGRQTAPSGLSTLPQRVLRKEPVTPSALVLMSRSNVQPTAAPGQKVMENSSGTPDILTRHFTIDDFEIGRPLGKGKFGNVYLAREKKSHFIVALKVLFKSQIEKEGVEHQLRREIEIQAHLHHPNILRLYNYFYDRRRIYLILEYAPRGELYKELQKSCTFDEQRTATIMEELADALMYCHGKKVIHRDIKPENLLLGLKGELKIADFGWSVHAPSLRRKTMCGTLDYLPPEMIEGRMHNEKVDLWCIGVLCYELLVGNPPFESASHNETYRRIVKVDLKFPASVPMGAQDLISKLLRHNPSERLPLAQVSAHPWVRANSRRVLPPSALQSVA

IC50	Structure (SMILES)
0.0501 µM	C[C@@H]1CC[C@H](NC(=O)OC(C)(C)C)CN1c1cc(-c2ccc3c(N)n[nH]c3c2)nc(N)n1
0.316 µM	C[C@@H]1CO[C@H](C(=O)Nc2ccccc2)CN1c1cc(-c2ccc3c(N)n[nH]c3c2)nc(N)n1
5.01 µM	C[C@H]1CC[C@@H](C(=O)Nc2ccccc2)CN1c1cc(-c2ccc3c(N)n[nH]c3c2)nc(N)n1
1 µM	C[C@@H]1CC[C@H](C(=O)Nc2ccccc2)CN1c1cc(-c2ccc3c(N)[nH]nc3c2)nc(N)n1
3.16 µM	Nc1nc(Nc2ccccc2)cc(-c2ccc3c(N)n[nH]c3c2)n1
3.16 µM	Nc1nc(-c2ccc3c(N)[nH]nc3c2)cc(N2CCO[C@H](C(=O)Nc3ccccc3)C2)n1
1.26 µM	Nc1nc(-c2ccc3c(N)n[nH]c3c2)cc(N2CCC[C@H](C(=O)Nc3ccccc3)C2)n1
2 µM	C[C@@H]1CC[C@@H](C(=O)Nc2ccccc2)CN1c1cc(-c2ccc3c(N)n[nH]c3c2)nc(N)n1 (racemic)

Second part, the compound before the results:

Structure (SMILES)	IC50
C[C@@H]1COCCN1c1cc(-c2ccc3c(N)[nH]nc3c2)nc(N)n1	25.1 µM
C[C@H]1COCCN1c1cc(-c2ccc3c(N)n[nH]c3c2)nc(N)n1	25.1 µM
Nc1nc(-c2ccc3c(N)[nH]nc3c2)cc(N2CCOCC2)n1	> 10 µM
CCNc1cc(-c2ccc3c(N)[nH]nc3c2)nc(N)n1	10 µM
C[C@H]1CC[C@@H](NC(=O)OC(C)(C)C)CN1c1cc(-c2ccc3c(N)[nH]nc3c2)nc(N)n1	1 µM
Cc1cc(-c2ccc3c(N)n[nH]c3c2)nc(N)n1	12.6 µM
Nc1nc(NC2CCCC2)cc(-c2ccc3c(N)n[nH]c3c2)n1	7.94 µM
CC(C)[C@@H]1COCCN1c1cc(-c2ccc3c(N)n[nH]c3c2)nc(N)n1	7.94 µM
CC(C)(C)OC(=O)N[C@@H]1CCCN(c2cc(-c3ccc4c(N)n[nH]c4c3)nc(N)n2)C1	5.01 µM
Nc1nc(-c2ccc3c(N)n[nH]c3c2)cc(N2CCCC2)n1	> 10 µM
CC[C@@H]1COCCN1c1cc(-c2ccc3c(N)n[nH]c3c2)nc(N)n1	> 10 µM
C[C@H]1CC[C@@H](NC(=O)OC(C)(C)C)CN1c1cc(-c2ccc3c(N)[nH]nc3c2)nc(N)n1 (racemic)	0.158 µM

These compounds were tested against Rho-associated protein kinase 1 (Homo sapiens, UniProt Q13464) (assay: Inhibition of ROCK1). Settings: not given.
Chain of Rho-associated protein kinase 1 (Q13464 whole entry): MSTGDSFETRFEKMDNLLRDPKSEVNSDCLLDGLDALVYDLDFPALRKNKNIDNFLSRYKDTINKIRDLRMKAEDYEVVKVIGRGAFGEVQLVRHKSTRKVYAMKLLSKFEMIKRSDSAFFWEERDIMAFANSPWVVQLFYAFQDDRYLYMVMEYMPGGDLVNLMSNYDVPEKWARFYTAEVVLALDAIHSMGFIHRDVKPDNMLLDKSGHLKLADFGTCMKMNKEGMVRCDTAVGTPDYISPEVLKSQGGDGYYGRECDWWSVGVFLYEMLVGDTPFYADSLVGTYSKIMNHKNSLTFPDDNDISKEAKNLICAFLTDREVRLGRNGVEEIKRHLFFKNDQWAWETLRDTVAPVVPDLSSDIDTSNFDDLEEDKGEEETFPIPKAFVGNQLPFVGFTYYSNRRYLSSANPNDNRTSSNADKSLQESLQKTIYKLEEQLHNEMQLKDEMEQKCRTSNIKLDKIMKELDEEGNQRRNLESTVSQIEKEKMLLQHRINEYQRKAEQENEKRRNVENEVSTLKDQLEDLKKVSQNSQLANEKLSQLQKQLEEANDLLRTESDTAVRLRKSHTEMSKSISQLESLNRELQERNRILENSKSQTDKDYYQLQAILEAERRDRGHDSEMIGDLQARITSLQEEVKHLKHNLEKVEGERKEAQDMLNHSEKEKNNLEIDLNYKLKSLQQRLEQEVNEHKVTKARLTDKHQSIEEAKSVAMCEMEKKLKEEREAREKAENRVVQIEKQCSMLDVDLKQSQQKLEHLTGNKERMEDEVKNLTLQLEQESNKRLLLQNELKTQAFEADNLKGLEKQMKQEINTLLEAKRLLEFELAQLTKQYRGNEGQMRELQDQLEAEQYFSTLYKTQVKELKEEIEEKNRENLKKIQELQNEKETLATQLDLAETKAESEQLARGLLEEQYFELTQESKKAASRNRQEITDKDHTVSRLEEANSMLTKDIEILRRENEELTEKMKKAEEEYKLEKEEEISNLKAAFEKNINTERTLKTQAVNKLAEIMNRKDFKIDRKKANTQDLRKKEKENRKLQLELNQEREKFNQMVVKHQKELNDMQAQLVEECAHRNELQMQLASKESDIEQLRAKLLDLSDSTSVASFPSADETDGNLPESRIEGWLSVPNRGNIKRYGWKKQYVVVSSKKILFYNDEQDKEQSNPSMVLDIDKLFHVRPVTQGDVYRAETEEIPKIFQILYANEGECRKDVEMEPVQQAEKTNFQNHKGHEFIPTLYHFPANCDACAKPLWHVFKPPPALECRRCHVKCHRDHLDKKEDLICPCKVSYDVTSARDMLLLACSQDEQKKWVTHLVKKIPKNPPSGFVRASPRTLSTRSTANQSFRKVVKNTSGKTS

IC50	Structure (SMILES)
> 10 µM	C[C@@H]1CC[C@H](NC(=O)OC(C)(C)C)CN1c1cc(-c2ccc3c(N)n[nH]c3c2)nc(N)n1
0.158 µM	C[C@@H]1CO[C@H](C(=O)Nc2ccccc2)CN1c1cc(-c2ccc3c(N)n[nH]c3c2)nc(N)n1
0.2 µM	C[C@@H]1CC[C@H](C(=O)Nc2ccccc2)CN1c1cc(-c2ccc3c(N)[nH]nc3c2)nc(N)n1
2.51 µM	Nc1nc(Nc2ccccc2)cc(-c2ccc3c(N)n[nH]c3c2)n1
0.794 µM	Nc1nc(-c2ccc3c(N)[nH]nc3c2)cc(N2CCO[C@H](C(=O)Nc3ccccc3)C2)n1
2 µM	Nc1nc(-c2ccc3c(N)n[nH]c3c2)cc(N2CCC[C@H](C(=O)Nc3ccccc3)C2)n1
> 10 µM	C[C@@H]1CC[C@@H](C(=O)Nc2ccccc2)CN1c1cc(-c2ccc3c(N)n[nH]c3c2)nc(N)n1 (racemic)

Second part, the compound before the results:

Structure (SMILES)	IC50
C[C@@H]1COCCN1c1cc(-c2ccc3c(N)[nH]nc3c2)nc(N)n1	15.8 µM
C[C@H]1COCCN1c1cc(-c2ccc3c(N)n[nH]c3c2)nc(N)n1	15.8 µM
Nc1nc(-c2ccc3c(N)[nH]nc3c2)cc(N2CCOCC2)n1	> 10 µM
CCNc1cc(-c2ccc3c(N)[nH]nc3c2)nc(N)n1	> 10 µM
Cc1cc(-c2ccc3c(N)n[nH]c3c2)nc(N)n1	3.98 µM
Nc1nc(NC2CCCC2)cc(-c2ccc3c(N)n[nH]c3c2)n1	6.31 µM
CC(C)[C@@H]1COCCN1c1cc(-c2ccc3c(N)n[nH]c3c2)nc(N)n1	15.8 µM
CC(C)(C)OC(=O)N[C@@H]1CCCN(c2cc(-c3ccc4c(N)n[nH]c4c3)nc(N)n2)C1	> 10 µM
Nc1nc(-c2ccc3c(N)n[nH]c3c2)cc(N2CCCC2)n1	> 10 µM
CC[C@@H]1COCCN1c1cc(-c2ccc3c(N)n[nH]c3c2)nc(N)n1	> 10 µM
C[C@H]1CC[C@@H](NC(=O)OC(C)(C)C)CN1c1cc(-c2ccc3c(N)[nH]nc3c2)nc(N)n1 (racemic)	> 10 µM

These compounds were tested against T2, TGF-beta receptor type-1 (Homo sapiens, UniProt P36897) (assay: Inhibition of ALK5). Settings: read-out: pIC50 (converted).
T2 sequence (P36897 whole entry): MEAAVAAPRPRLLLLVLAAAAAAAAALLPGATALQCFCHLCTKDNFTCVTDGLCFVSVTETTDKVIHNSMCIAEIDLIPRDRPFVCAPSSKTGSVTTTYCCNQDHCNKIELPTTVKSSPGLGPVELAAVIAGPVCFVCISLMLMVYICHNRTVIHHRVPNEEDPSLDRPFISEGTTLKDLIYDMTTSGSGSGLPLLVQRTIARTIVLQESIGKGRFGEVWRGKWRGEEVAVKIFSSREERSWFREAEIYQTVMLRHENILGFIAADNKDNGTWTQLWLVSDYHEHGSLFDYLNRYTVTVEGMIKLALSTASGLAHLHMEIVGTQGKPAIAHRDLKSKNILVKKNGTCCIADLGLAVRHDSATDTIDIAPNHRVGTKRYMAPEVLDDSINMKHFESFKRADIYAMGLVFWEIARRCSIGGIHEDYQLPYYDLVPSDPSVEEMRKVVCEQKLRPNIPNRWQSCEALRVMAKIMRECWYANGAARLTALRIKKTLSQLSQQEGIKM

IC50	Structure (SMILES)
> 10 µM	C[C@@H]1CC[C@H](NC(=O)OC(C)(C)C)CN1c1cc(-c2ccc3c(N)n[nH]c3c2)nc(N)n1
> 10 µM	C[C@@H]1CO[C@H](C(=O)Nc2ccccc2)CN1c1cc(-c2ccc3c(N)n[nH]c3c2)nc(N)n1
> 10 µM	C[C@H]1CC[C@@H](C(=O)Nc2ccccc2)CN1c1cc(-c2ccc3c(N)n[nH]c3c2)nc(N)n1
6.31 µM	C[C@@H]1CC[C@H](C(=O)Nc2ccccc2)CN1c1cc(-c2ccc3c(N)[nH]nc3c2)nc(N)n1
0.0251 µM	Nc1nc(Nc2ccccc2)cc(-c2ccc3c(N)n[nH]c3c2)n1
> 10 µM	Nc1nc(-c2ccc3c(N)[nH]nc3c2)cc(N2CCO[C@H](C(=O)Nc3ccccc3)C2)n1
> 10 µM	Nc1nc(-c2ccc3c(N)n[nH]c3c2)cc(N2CCC[C@H](C(=O)Nc3ccccc3)C2)n1
> 10 µM	C[C@@H]1CC[C@@H](C(=O)Nc2ccccc2)CN1c1cc(-c2ccc3c(N)n[nH]c3c2)nc(N)n1 (racemic)

The remaining lines, values behind:

Structure (SMILES)	IC50
C[C@@H]1COCCN1c1cc(-c2ccc3c(N)[nH]nc3c2)nc(N)n1	> 10 µM
C[C@H]1COCCN1c1cc(-c2ccc3c(N)n[nH]c3c2)nc(N)n1	> 10 µM
Nc1nc(-c2ccc3c(N)[nH]nc3c2)cc(N2CCOCC2)n1	> 10 µM
CCNc1cc(-c2ccc3c(N)[nH]nc3c2)nc(N)n1	0.501 µM
Cc1cc(-c2ccc3c(N)n[nH]c3c2)nc(N)n1	7.94 µM
Nc1nc(NC2CCCC2)cc(-c2ccc3c(N)n[nH]c3c2)n1	0.398 µM
CC(C)[C@@H]1COCCN1c1cc(-c2ccc3c(N)n[nH]c3c2)nc(N)n1	> 10 µM
CC(C)(C)OC(=O)N[C@@H]1CCCN(c2cc(-c3ccc4c(N)n[nH]c4c3)nc(N)n2)C1	> 10 µM
Nc1nc(-c2ccc3c(N)n[nH]c3c2)cc(N2CCCC2)n1	> 10 µM
CC[C@@H]1COCCN1c1cc(-c2ccc3c(N)n[nH]c3c2)nc(N)n1	> 10 µM
C[C@H]1CC[C@@H](NC(=O)OC(C)(C)C)CN1c1cc(-c2ccc3c(N)[nH]nc3c2)nc(N)n1 (racemic)	> 10 µM

Each compound was assayed against T3, Aurora kinase A (Homo sapiens, UniProt O14965) (assay: Inhibition of aurora A). Settings: not given.
T3 sequence (O14965 whole entry): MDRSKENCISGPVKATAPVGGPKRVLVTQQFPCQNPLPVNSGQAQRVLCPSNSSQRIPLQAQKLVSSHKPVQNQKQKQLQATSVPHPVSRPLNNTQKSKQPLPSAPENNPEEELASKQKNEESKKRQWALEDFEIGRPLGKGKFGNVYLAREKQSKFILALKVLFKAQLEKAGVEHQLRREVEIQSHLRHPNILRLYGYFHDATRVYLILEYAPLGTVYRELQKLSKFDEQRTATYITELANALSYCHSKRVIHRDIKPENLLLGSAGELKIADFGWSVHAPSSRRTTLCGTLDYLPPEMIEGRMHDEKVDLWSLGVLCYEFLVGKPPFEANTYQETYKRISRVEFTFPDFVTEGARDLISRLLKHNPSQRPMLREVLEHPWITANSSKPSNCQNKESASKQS

IC50	Structure (SMILES)
2 µM	C[C@@H]1CC[C@H](NC(=O)OC(C)(C)C)CN1c1cc(-c2ccc3c(N)n[nH]c3c2)nc(N)n1
0.2 µM	C[C@@H]1CO[C@H](C(=O)Nc2ccccc2)CN1c1cc(-c2ccc3c(N)n[nH]c3c2)nc(N)n1
0.2 µM	Nc1nc(Nc2ccccc2)cc(-c2ccc3c(N)n[nH]c3c2)n1
1.26 µM	Nc1nc(-c2ccc3c(N)[nH]nc3c2)cc(N2CCO[C@H](C(=O)Nc3ccccc3)C2)n1
7.94 µM	Nc1nc(-c2ccc3c(N)n[nH]c3c2)cc(N2CCC[C@H](C(=O)Nc3ccccc3)C2)n1

Continued, compound first:

Structure (SMILES)	IC50
C[C@@H]1COCCN1c1cc(-c2ccc3c(N)[nH]nc3c2)nc(N)n1	12.6 µM
C[C@H]1COCCN1c1cc(-c2ccc3c(N)n[nH]c3c2)nc(N)n1	> 10 µM
Nc1nc(-c2ccc3c(N)[nH]nc3c2)cc(N2CCOCC2)n1	> 10 µM
CCNc1cc(-c2ccc3c(N)[nH]nc3c2)nc(N)n1	2.51 µM
C[C@H]1CC[C@@H](NC(=O)OC(C)(C)C)CN1c1cc(-c2ccc3c(N)[nH]nc3c2)nc(N)n1	0.501 µM
Cc1cc(-c2ccc3c(N)n[nH]c3c2)nc(N)n1	3.98 µM
Nc1nc(NC2CCCC2)cc(-c2ccc3c(N)n[nH]c3c2)n1	2.51 µM
CC(C)[C@@H]1COCCN1c1cc(-c2ccc3c(N)n[nH]c3c2)nc(N)n1	12.6 µM
CC(C)(C)OC(=O)N[C@@H]1CCCN(c2cc(-c3ccc4c(N)n[nH]c4c3)nc(N)n2)C1	1.58 µM
Nc1nc(-c2ccc3c(N)n[nH]c3c2)cc(N2CCCC2)n1	> 10 µM
CC[C@@H]1COCCN1c1cc(-c2ccc3c(N)n[nH]c3c2)nc(N)n1	5.01 µM
C[C@H]1CC[C@@H](NC(=O)OC(C)(C)C)CN1c1cc(-c2ccc3c(N)[nH]nc3c2)nc(N)n1 (racemic)	0.794 µM
